Results published in article PMC12608155, “Discovery of Potential Antileishmanial Compounds Through Phenotypic Screening of an Alkaloid Library” (Molecules, 2025).
Read-outs that look alike come from different tables or passages of the source.

Tested on: L. donovani IRFP axenic amastigotes
Test: Primary single-concentration screening on axenic amastigotes, growth inhibition at 72 h
Type: cell-based, Leishmania donovani
Details: for inhibition at 1 µM / inhibition at 10 µM: Leishmania donovani
[1] = 1 µM, experiment 1, 72 h, axenic amastigotes, read-out: Growth Inhibition (%) at 72h, 1 µM_Exp1
[2] = 1 µM, experiment 2, 72 h, axenic amastigotes, read-out: Growth Inhibition (%) at 72h, 1 µM_Exp2
[3] = 10 µM, experiment 1, 72 h, axenic amastigotes, read-out: Growth Inhibition (%) at 72h, 10 µM_Exp1
[4] = 10 µM, experiment 2, 72 h, axenic amastigotes, read-out: Growth Inhibition (%) at 72h, 10 µM_Exp2
[5] = 1 µM, experiment 1, 72 h, axenic amastigotes
[6] = 1 µM, experiment 2, 72 h, axenic amastigotes
[7] = 10 µM, experiment 1, 72 h, axenic amastigotes
[8] = 10 µM, experiment 2, 72 h, axenic amastigotes

Compound | inhibition at 1 µM [1] [%] | inhibition at 1 µM [2] [%] | inhibition at 10 µM [3] [%] | inhibition at 10 µM [4] [%] | Growth Inhibition (%) at 72h, 1 µM_Exp1 [5] [%] | Growth Inhibition (%) at 72h, 1 µM_Exp2 [6] [%] | Growth Inhibition (%) at 72h, 10 µM_Exp1 [7] [%] | Growth Inhibition (%) at 72h, 10 µM_Exp2 [8] [%] | also measured
O=C(CC1NCCCC1O)Cn1cnc2cc(Br)c(Cl)cc2c1=O (stereo not drawn) [Halofuginone] | 93.7 | 90.9 | 97.7 | 98.2 | – | – | – | – | –
COc1cc2c(cc1OC)-c1c(C)c3ccc(OC)c(OC)c3c[n+]1CC2.[Cl-] [Dehydrocorydaline (chloride)] | – | – | – | – | 13.00 | 31.86 | 95.47 | 88.17 | –
CC(C)=CC[C@H](O)C1=CC(=O)c2c(O)ccc(O)c2C1=O [(-)-Alkannin] | – | – | – | – | 100.44 | 100.08 | 99.90 | 99.93 | –
COc1cc2c(cc1O)C1Cc3ccc(OC)c(O)c3C[N+]1(C)CC2.[Cl-] (stereo not drawn) [Cyclanoline (chloride)] | – | – | – | – | -48.98 | 13.86 | 77.56 | 17.25 | –
[Cl-].c1c2c(cc3c1OCO3)-c1cc3ccc4c(c3c[n+]1CC2)OCO4 [Coptisine (chloride)] | – | – | – | – | 29.53 | 16.08 | 84.96 | 96.73 | –
Cc1c2ccncc2c(C)c2c1[nH]c1ccccc12.Cl [Ellipticine (hydrochloride)] | – | – | – | – | 36.30 | -10.32 | 98.68 | 97.67 | –
COc1ccc2cc3[n+](cc2c1OC)CCc1cc(O)c(O)cc1-3.[Cl-] [Demethyleneberberine (chloride)] | – | – | – | – | -4.24 | 8.25 | 43.2 | 71.18 | –
O=S(=O)([O-])O.c1c2c(cc3c1OCO3)-c1cc3ccc4c(c3c[n+]1CC2)OCO4 [Coptisine (Sulfate)] | – | – | – | – | -9.12 | -56.10 | 71.50 | 83.90 | –
CC[C@H]1CN2CCc3cc(OC)c(OC)cc3[C@@H]2C[C@@H]1C[C@H]1NCCc2cc(O)c(OC)cc21.Cl.Cl [Cephaeline (dihydrochloride)] | – | – | – | – | -15.97 | -74.54 | 96.96 | 92.99 | –
CCc1c2c(nc3ccccc13)-c1cc3c(c(=O)n1C2)COC(=O)[C@]3(O)CC [7-Ethylcamptothecin] | – | – | – | – | 70.44 | 77.88 | 96.57 | 91.90 | –
Evodiamine | – | – | – | – | -42.64 | 25.77 | 94.67 | 96.80 | –
CC[C@@]1(O)C(=O)OCc2c1cc1n(c2=O)Cc2cc3c(OC)cccc3nc2-1 [9-Methoxycamptothecin] | – | – | – | – | 64.49 | 73.97 | 96.02 | 94.80 | –
COc1cc(CNC(=O)CCCCCCC(C)C)ccc1O [Dihydrocapsaicin] | -4.08 | 35.3 | 92 | 71.1 | – | – | – | – | –
CCCCC/C=C\C/C=C\CCCCCCCC(=O)NCc1ccccc1 [N-Benzyllinoleamide] | – | – | – | – | 23.06 | -24.6 | 99.77 | 99.86 | –
c1ccc2c(Cc3[nH]c4ccccc4c3Cc3c[nH]c4ccccc34)c[nH]c2c1 [2,3-Bis(3-indolylmethyl) indole] | -5.15 | 13.6 | 101 | 100 | – | – | – | – | –
CC[C@]1(O)C[C@@H]2CN(CCc3c([nH]c4ccccc34)[C@@](C(=O)OC)(c3cc4c(cc3OC)N(C)[C@H]3[C@@](O)(C(=O)OC)[C@H](OC(C)=O)[C@]5(CC)C=CCN6CC[C@]43[C@@H]65)C2)C1.O=S(=O)(O)O [Vinblastine (sulfate)] | – | – | – | – | -20.42 | -25.23 | 99.34 | 78.77 | –
O=C(O)c1cccc2nc3ccccc3nc12 [Phenazine-1-carboxylic acid] | -12.2 | -87 | 90.8 | 87.8 | – | – | – | – | –
COc1cc2c(cc1OC)-c1c(C)c3ccc(OC)c(OC)c3c[n+]1CC2.[OH-] [Dehydrocorydaline (hydroxyl)] | – | – | – | – | 10.19 | -0.13 | 92.43 | 77.86 | –

Compound | inhibition at 1 µM [1] [%] | inhibition at 1 µM [2] [%] | inhibition at 10 µM [3] [%] | inhibition at 10 µM [4] [%] | Growth Inhibition (%) at 72h, 1 µM_Exp1 [5] [%] | Growth Inhibition (%) at 72h, 1 µM_Exp2 [6] [%] | Growth Inhibition (%) at 72h, 10 µM_Exp1 [7] [%] | Growth Inhibition (%) at 72h, 10 µM_Exp2 [8] [%] | also measured
COC(=O)C[C@](O)(CCC(C)(C)O)C(=O)O[C@@H]1C(OC)=C[C@]23CCCN2CCc2cc4c(cc2[C@H]13)OCO4 [Harringtonine] | -25.3 | 3.29 | 92.5 | 92.2 | – | – | – | – | –
CC[C@@]1(O)C(=O)OCc2c1cc1n(c2=O)Cc2cc3c([N+](=O)[O-])cccc3nc2-1 [Rubitecan] | 69.8 | 36.9 | 94.4 | 89.4 | – | – | – | – | –
O=C(/C=C/C=C/c1ccc2c(c1)OCO2)N1CCCCC1 [Piperine] | 38.3 | 17.5 | -7.31 | 75.2 | – | – | – | – | –
CC[C@@]1(O)C(=O)OCc2c1cc1n(c2=O)Cc2cc3c(N)cccc3nc2-1 [9-Aminocamptothecin] | -3.99 | 62 | 74.7 | 89.1 | – | – | – | – | –
CC[C@@]1(O)C(=O)OCc2c1cc1n(c2=O)Cc2cc3ccccc3nc2-1 [Camptothecin] | 66.4 | 89.3 | 91 | 95.9 | – | – | – | – | –
COc1cc(CNC(=O)CCCCCC(C)C)ccc1O [Nordihydrocapsaicin] | – | – | – | – | – | – | – | – | Growth Inhibition (%) at 72h, 1 µM_Exp1: 1.91%; Growth Inhibition (%) at 72h, 1 µM_Exp2: -21.65%; Growth Inhibition (%) at 72h, 10 µM_Exp1: 90.15%; Growth Inhibition (%) at 72h, 10 µM_Exp2: 70.24%
CCCCCCCCC(=O)NCc1ccc(O)c(OC)c1 [Nonivamide] | 10.9 | -30.7 | 101 | 93.3 | – | – | – | – | –
Cl.Cl.O=C(C[C@H]1NCCC[C@@H]1O)Cn1cnc2ccccc2c1=O [Febrifugine (dihydrochloride)] | – | – | – | – | 74.39 | 25.76 | 97.63 | 97.12 | –
COc1ccc2cc3[n+](cc2c1OC)CCc1cc2c(cc1-3)OCO2.O.[Cl-] [Berberine (chloride hydrate)] | – | – | – | – | 29.91 | 24.54 | 98.55 | 99.87 | –
Cc1ncc(CO)c(CO)c1O.Cl [Pyridoxine (hydrochloride)] | – | – | – | – | 6.77 | -86.02 | 79.17 | 65.78 | –
O=C1C=CC(=O)N1 [Maleimide] | 101 | 101 | 101 | 101 | – | – | – | – | –
COc1cc2c(cc1OC)-c1c(C)c3ccc(OC)c(OC)c3c[n+]1CC2.O=[N+]([O-])[O-] [Dehydrocorydaline (nitrate)] | – | – | – | – | 27.42 | -14.19 | 82.98 | 66.56 | –
CN1[C@@H](CC(=O)c2ccccc2)CCC[C@H]1CC(=O)c1ccccc1 [Lobelanine] | – | – | – | – | -73.70 | 10.47 | 75.56 | 20.66 | –
O=C(O)Cc1c[nH]c2ccccc12 [3-Indoleacetic acid] | -25.4 | -9.83 | 102 | 101 | – | – | – | – | –
COc1cc2c(cc1OC)[C@H]1[C@@H](C)c3ccc(OC)c(OC)c3CN1CC2 [Corydaline] | – | – | – | – | -15.75 | 2.30 | 79.13 | 87.39 | –
C[C@@H]1CC[C@@]2(NC1)O[C@H]1C[C@H]3[C@@H]4CC=C5C[C@@H](O[C@@H]6O[C@H](CO)[C@@H](O[C@@H]7O[C@@H](C)[C@H](O)[C@@H](O)[C@H]7O)[C@H](O)[C@H]6O[C@@H]6O[C@@H](C)[C@H](O)[C@@H](O)[C@H]6O)CC[C@]5(C)[C@H]4CC[C@]3(C)[C@H]1[C@@H]2C [Solamargine] | 62.8 | 11.2 | 93.6 | 94.3 | – | – | – | – | –
O=C(C[C@H]1NCCC[C@@H]1O)Cn1cnc2ccccc2c1=O [Febrifugine] | 15.4 | -25.3 | 99.8 | 98.2 | – | – | – | – | –
CC(=O)C1=C(O)[C@@H]2[C@H]3c4c[nH]c5cccc(c45)C[C@H]3C(C)(C)N2C1=O [Cyclopiazonic acid] | 20.8 | 19.9 | 100 | 100 | – | – | – | – | –
